The text below walks through data of patent publication US20190359560A1, “ANTI-INFLAMMATORY DRUG AND USES THEREOF” (KYUSHU UNIVERSITY, NATIONAL UNIVERSITY CORPORATION, priority 2015, published 2019).

The test system of data set [1] is G0S2 mRNA. Put plainly: G0S2 mRNA expression in Hepa1-6 cells (qRT-PCR). It counts as cell-based, mouse. The note with it: for expression level of G0S2 mRNA: 10 μM, 24 hours; for G0S2 mRNA expression level: 48 hours, vs DMSO. The protocol:
The effect of the compound on the expression level of mRNA of the G0S2 gene was evaluated for the three compounds extracted so far. 24 hours after seeding with Hepa1-6 cells, the cells were exposed to hit compounds at 10 μM and sampling and total RNA extraction were carried out 24 hours later. Subsequently, changes in the expression level of mRNA of the G0S2 gene were measured by a qRT-PCR method.
Hepa1-6 cells were exposed to 10 μM of each of seven derivatives of Compound No. 2 (Examples 2 and 4 to 9) and an effect of the derivative compounds on the expression level of G0S2 mRNA after 24 hours was evaluated.
Therefore, Hepa1-6 cells were exposed to Compound No. 2 and the compound of Example 2 (NS-3-011) in the range of 0.5 to 5 μM and an effect of the compounds on the expression level of endogenous G0S2 mRNA after 48 hours was evaluated.
Subsequently, Hepa1-6 cells were transfected with siRNA against Hsd17b4 or control siRNA in the presence (10 μM) or absence (indicated as “DMSO” in FIG. 22B) of Compound No. 2. Subsequently, each cell was recovered after 48 hours and total RNA was extracted. Subsequently, the expression level of the G0S2 gene was quantified by real-time PCR.
A general note: In qPCR the cycle at which signal appears reflects the starting amount.

In another data set the test system is Hsd17b4 gene. As to the kind of experiment: Hsd17b4 knockdown in Hepa1-6 cells: Hsd17b4 gene expression (real-time PCR). It counts as cell-based, mouse. The note with it: 48 hours after transfection, vs control siRNA. The source says:
Hepα1-6 cells, which are mouse hepatoma-derived cells, were divided into two groups, in which one group was transfected with siRNA against Hsd17b4 and the other group was transfected with control siRNA. The base sequence of the sense strand of siRNA against Hsd17b4 is set forth in SEQ ID NO: 7, and the base sequence of the antisense strand thereof is set forth in SEQ ID NO: 8. In addition, commercially available siRNA (Life Technologies, Inc., the base sequence of the antisense strand is set forth in SEQ ID NO: 4) was used as the control siRNA.
Subsequently, each cell was recovered after 48 hours and total RNA was extracted. Subsequently, the expression level of the Hsd17b4 gene was quantified by real-time PCR.

Data set [2] relates to G0S2 mRNA. Put plainly: G0S2 mRNA expression in human HepG2 cells. It counts as cell-based. Particulars: 10 μM, 24 hours.
The test system of data set [3] is nuclear receptor RARα mRNA. As to the kind of experiment: RARα mRNA expression in Hepa1-6 cells (qRT-PCR). It counts as cell-based, mouse. Particulars: 10 μM, 24 hours.
A further data set has as its system Bmal1 promoter. Put plainly: Bmal1 promoter luciferase assay in MEF cell line. It counts as cell-based. Particulars: MEF reporter cell line, 10 μM, 24 hours. The protocol:
Therefore, in order to exclude compounds having an effect on clock genes in normal cells, studies were conducted using the MEF cell line stably expressing an expression cassette in which a luciferase gene was ligated to the downstream side of the Bmal1 promoter.

Data set [4] has as its system G0S2 promoter (−2030→+10). Put plainly: G0S2 promoter (−2030→+10) luciferase assay in Hepa1-6 cells. It counts as cell-based, mouse. Particulars: Hepa1-6 reporter cells, 10 μM, 24 hours. The protocol: To get closer to the environment in the liver, a cell stably expressing an expression cassette in which a luciferase gene was ligated to the downstream side of the G0S2 promoter (−2030→+10) was constructed in the Hepa1-6 cell, which is a mouse hepatoma-derived cell. Using this cell, an effect of the candidate compounds on the luciferase activity was evaluated in the same manner as in the primary screening described above.

Data set [5] deals with DEN-induced hepatitis/hepatoma mouse model. As to the kind of experiment: DEN-induced hepatitis/hepatoma mouse model: hepatoma/tumor formation in liver after 14 weeks. It counts as in vivo. The note with it: 15 mg/kg in drinking water. The procedure:
Mice of a diethylnitrosamine (DEN)-induced hepatitis/hepatoma mouse model were divided into two groups, one receiving siRNA against G0S2 (G0S2 siRNA-administered group) and the other receiving negative control siRNA (control siRNA-administered group). Administration of siRNA to mice was carried out by tail vein administration of 1.6 nmol/mouse using a nucleic acid transfection reagent (trade name “LipoTrust™ EX Oligo <in vivo>, Hokkaido System Science Co., Ltd.). As the siRNA against G0S2, commercially available siRNA (Life Technologies, Inc., trade name “Stealth siRNA”, catalog number “#1320001”, the base sequence of the antisense strand is set forth in SEQ ID NO: 3) was used. As the control siRNA, a commercially available siRNA (Life Technologies, Inc., the base sequence of the antisense strand is set forth in SEQ ID NO: 4) was used.
Subsequently, mice of the same G0S2 siRNA-administered group and control siRNA-administered group as above were prepared. DEN was added to drinking water at a concentration of 80 mg/L from one day after the administration of siRNA to mice, and mice were sacrificed after 14 weeks of breeding and then subjected to analysis. As a result, the onset of hepatoma was inhibited in mice of the G0S2 siRNA-administered group.
Diethylnitrosamine (DEN) dissolved in water at a concentration of 80 mg/L as drinking water was administered in drinking water to ICR mice, thereby inducing chronic inflammation and hepatoma in the liver. In addition, a group in which 15 mg/kg of the compound of Example 10 (NS-3-086) was administered in drinking water from immediately after the start of administration of DEN in drinking water was prepared. As a control group, a group given tap water as drinking water was used.
Subsequently, mice of each group were sacrificed 14 weeks after the start of administration of DEN in drinking water, and the liver was excised and analyzed. FIGS. 28A, 28B and 28C are photographs of the liver at 14 weeks after the start of administration of DEN in drinking water.

The test system of data set [6] is alanine aminotransferase (ALT) activity in serum. As to the kind of experiment: Serum ALT activity in DEN-induced hepatitis/hepatoma mouse model. It counts as in vivo. The note with it: ICR mice, DEN 80 mg/L, 15 mg/kg in drinking water, 8 weeks and 12 weeks. The protocol:
Diethylnitrosamine (DEN) dissolved in water at a concentration of 80 mg/L as drinking water was administered in drinking water to ICR mice, thereby inducing chronic inflammation in the liver. In addition, a group in which 15 mg/kg of the compound of Example 10 (NS-3-086) was administered in drinking water from immediately after the start of administration of DEN in drinking water was prepared. As a control group, a group given tap water as drinking water was used.
Subsequently, 8 weeks and 12 weeks after the start of administration of DEN in drinking water, blood was collected from the tails of mice of each group, and the alanine aminotransferase (ALT) activity in serum was measured using a commercially available kit (“Transaminase CII-Test Wako”, manufactured by Wako Pure Chemical Industries, Ltd.).

A further data set deals with G0S2 promoter. Put plainly: G0S2 promoter luciferase activity in O-4000E cell line, IC50. It counts as cell-based, mouse. Particulars: Mus musculus, 24 h, O-4000E cells, 24 hours after exposure. The procedure: The present inventors have searched for a G0S2 gene transcription inhibitor. In searching, the present inventors have received a compound library consisting of 9600 compounds (Core library) from the Open Innovation Center for Drug Discovery, The University of Tokyo. For this compound library, primary screening was carried out by evaluating an effect of compounds on a luciferase activity using a 384-well plate. The drug efficacy evaluation was studied three times for each compound (final concentration of 10 μM) using a cell line stably expressing an expression cassette in which a luciferase gene was ligated to the downstream side of the G0S2 promoter (−2030→−1378), and compounds which reduced a luciferase activity to less than ¼ were extracted from all studies. As a result, 175 compounds were hit.
For the evaluation of drug efficacy of Compound Nos. 1 and 2, which are hit compounds, an IC50 was calculated. The O-4000E cell line was seeded, and Compound Nos. 1 and 2 were serially diluted in […] so as to have final concentrations of 0.15625 μM to 10 μM, followed by exposure of the cells to the compounds. The luciferase activity was measured 24 hours after the exposure, and the curve fitting was carried out to calculate an IC50 of the compounds.
Detailed drug efficacy evaluation at low concentrations was carried out for the compound of Example 2 (NS-3-011) whose drug efficacy at a concentration of less than 10 μM was observed based on the studies so far and which is expected to have an effect equal to or more than that of Compound No. 2. First, using O-4000E cells, IC50 of Compound No. 2 and the compound of Example 2 (NS-3-011) on the G0S2 promoter activity was calculated.

The target in data set [7] is T1, Hsd17b4 (Peroxisomal multifunctional enzyme type 2) (Mus musculus, UniProt P51660).
T1 construct: Mouse hepatocytes were homogenized to extract proteins from the cytoplasm and nucleus; endogenous in cells; host or cells: mouse hepatocytes (homogenate, cytoplasmic and nuclear proteins)
T1 sequence (P51660 1-735): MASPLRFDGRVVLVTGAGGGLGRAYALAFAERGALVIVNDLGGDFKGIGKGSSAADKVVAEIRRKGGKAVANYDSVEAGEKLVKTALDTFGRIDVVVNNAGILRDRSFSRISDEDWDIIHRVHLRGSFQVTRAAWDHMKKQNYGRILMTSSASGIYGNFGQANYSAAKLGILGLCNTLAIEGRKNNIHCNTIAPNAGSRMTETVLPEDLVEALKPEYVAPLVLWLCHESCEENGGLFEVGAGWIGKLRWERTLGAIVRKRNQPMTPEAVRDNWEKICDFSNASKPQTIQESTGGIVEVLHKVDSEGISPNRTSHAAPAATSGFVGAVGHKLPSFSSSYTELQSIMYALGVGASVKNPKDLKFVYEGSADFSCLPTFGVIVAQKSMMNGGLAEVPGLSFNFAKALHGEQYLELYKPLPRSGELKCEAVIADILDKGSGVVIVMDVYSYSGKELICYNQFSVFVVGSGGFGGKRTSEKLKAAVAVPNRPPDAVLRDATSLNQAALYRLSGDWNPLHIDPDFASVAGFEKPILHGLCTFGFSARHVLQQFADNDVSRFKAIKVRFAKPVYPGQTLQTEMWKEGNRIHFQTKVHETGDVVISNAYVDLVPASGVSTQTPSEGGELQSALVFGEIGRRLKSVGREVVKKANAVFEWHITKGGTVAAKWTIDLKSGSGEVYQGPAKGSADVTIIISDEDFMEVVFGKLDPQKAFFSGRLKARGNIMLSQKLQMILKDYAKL
Put plainly: Pull-down assay with avidin beads and LC/MS/MS identification of target protein. It counts as binding. The note with it: proteins from mouse hepatocytes, avidin beads. The protocol:
(§1) Mouse hepatocytes were homogenized to extract proteins from the cytoplasm and nucleus. […] The chemical formulae of Compounds #142 and #151 are shown in General Formulae (13) and (14), respectively.
Thereafter, a pull-down assay was carried out with avidin-labeled magnetic beads (hereinafter, sometimes referred to as “avidin beads”), and the compounds and proteins bound to the avidin beads were subjected to acrylamide gel electrophoresis. The acrylamide gel after subjecting to electrophoresis was negatively stained, a band of a protein specifically bound to Compound #142 was excised, and the protein was identified by an LC/MS/MS analysis.
FIG. 17 is a photograph showing the results of acrylamide gel electrophoresis.

The subject of a further data set is G0S2. As to the kind of experiment: Inhibition of the expression of G0S2 (stated, test not specified). It counts as cell-based.
Source text: as §1

Setting [8] is: ICR mice, DEN 80 mg/L, 14 weeks.
Setting [9] is: liver, 14 weeks after start of DEN in drinking water.

Turning to `CCCCCCN/C(=N\C(=O)OC(C)(C)C)NCc1ccccc1` [Example 4], in the data set on G0S2 mRNA [1], the “expression level of G0S2 mRNA” value is “up to the same extent as that of Compound 2”.

On to “siRNA against Hsd17b4: siRNA against Hsd17b4, sense strand SEQ ID NO: 7, antisense strand SEQ ID NO: 8 (sense GAGCAUUAGUCAUUGUGAACGACUU; antisense AAGUCGUUCACAAUGACUAAUGCUC; listed as RNA, chemistry not given here)”, for which the “expression of Hsd17b4” value in the data set on Hsd17b4 gene is “inhibited”.

On to `CCCCCCNC(=N)NCCc1ccccc1` [Example 6], for which the “G0S2 mRNA expression level” value in the data set with G0S2 mRNA [1] (2.5 μM) and in the data set on G0S2 mRNA [1] (5 μM) was “significant decrease” in each case. Besides, the “expression level of G0S2 mRNA” value with G0S2 mRNA [1] is “up to the same extent as that of Compound 2”; in the data set on G0S2 mRNA [2] it was “significant decrease”.

In the case of `O=C(Nc1cccc(S(=O)(=O)c2cccc(NC(=O)C3CC3)c2)c1)C1CC1` [Compound No. 3], the “expression level of nuclear receptor RARα mRNA” value in data set [3] was “significant decrease”. Besides, the Bmal1 promoter activity entry in the data set on Bmal1 promoter is reported as “no significant change”. In addition, the “G0S2 promoter (−2030→+10) activity (relative value)” value in data set [4] is “less than ½”.

Consider `CCCCCCCCCCCCNC(=N)NCc1cc(C(F)(F)F)cc(C(F)(F)F)c1` [Example 10], for which, in data set [5] (setting [8]), the hepatic hardening entry is listed as “inhibited” and the “tumor formation in the liver” value is given as “inhibited”. Also, in [5] (setting [9]), the “mice (n) with large number of tumors” value is reported as 0 n, the “mice (n) with number of tumors 0” value turned out to be 3 n and the “mice (n) with number of tumors 1” value is reported as 3 n. Moreover, the “increase in serum ALT activity by DEN drinking water” value in [6] is given as “inhibited”.

Consider `CC(=O)Nc1cccc(NC(=O)CSc2nc(=O)n(N3CCN(C)CC3)c3c2CCC3)c1` [Compound No. 1], for which the “expression level of nuclear receptor RARα mRNA” value in data set [3] was “no change”. The molecule also displayed an IC50 in the data set on G0S2 promoter of 5 µM. The Bmal1 promoter activity result in the data set with Bmal1 promoter was “no significant change”. Moreover, the “G0S2 promoter (−2030→+10) activity (relative value)” value in data set [4] is reported as “less than ½”.

Turning to `CCCCCCCCCCCCNC(=N)NCc1ccc(OCc2cn(CCOCCOCCOCCNC(=O)CCCC[C@@H]3SC[C@@H]4NC(=O)N[C@@H]43)nn2)cc1` [#142], the “protein specifically bound in pull-down assay (band of about 75 kDa)” value in [7] is given as “Hsd17b4”.

In the case of `N=C(NCCCCCO)NCc1ccccc1` [Comparative Example 1], the “inhibition of the expression of G0S2” value with G0S2 is recorded as “not inhibiting the expression of G0S2”.

One may read the IC50 as the concentration that inhibits the measured activity by half.
